# Source: ChEMBL document CHEMBL6083190, “Synthesis and mechanistic study of Aβ42 C-terminus domain derived tetrapeptides that inhibit Alzheimer's Aβ-aggregation-induced neurotoxicity” (Bioorg Med Chem Lett, 2024)
# Activity calls are given as the source filed them. No cut-off for these calls is given here. Non-standard residues stand in square brackets, D forms with d. Residues, ends and D or L forms follow the SMILES beside them. Aib = CC(C)(N)C(=O)O
# Assays:
# PC-12 [1] = assay: Protection against amyloid beta-induced neurotoxicity in rat PC-12 cells assessed as cell viability at 2 uM by MTT assay (reference value: 63.6 %); type: functional; conditions: read-out: Activity
# PC-12 [2] = assay: Protection against amyloid beta-induced neurotoxicity in rat PC-12 cells assessed as cell viability at 4 uM by MTT assay (reference value: 63.6 %); type: functional; conditions: read-out: Activity
# PC-12 [3] = assay: Protection against amyloid beta-induced neurotoxicity in rat PC-12 cells assessed as cell viability at 10 uM by MTT assay (reference value: 63.6 %); type: functional; conditions: read-out: Activity
# [4] = Inhibition of amyloid beta-induced neurotoxicity in rat PC-12 cells at 2 uM by MTT assay relative to control; type: functional
# [5] = Inhibition of amyloid beta-induced neurotoxicity in rat PC-12 cells at 4 uM by MTT assay relative to control; type: functional
# [6] = Inhibition of amyloid beta-induced neurotoxicity in rat PC-12 cells at 10 uM by MTT assay relative to control; type: functional
# [7] = target: Amyloid-beta precursor protein (Homo sapiens) (UniProt P05067); assay: Inhibition of amyloid beta (1 to 42) (unknown origin) self-aggregation assessed as absence of fibrillar aggregates at 1:5 amyloid-beta:compound concentration ratio incubated for 72 hrs by high-resolution transmission electron microscopic analysis
# Amyloid-beta precursor protein (Homo sapiens), sequence (P05067 whole entry): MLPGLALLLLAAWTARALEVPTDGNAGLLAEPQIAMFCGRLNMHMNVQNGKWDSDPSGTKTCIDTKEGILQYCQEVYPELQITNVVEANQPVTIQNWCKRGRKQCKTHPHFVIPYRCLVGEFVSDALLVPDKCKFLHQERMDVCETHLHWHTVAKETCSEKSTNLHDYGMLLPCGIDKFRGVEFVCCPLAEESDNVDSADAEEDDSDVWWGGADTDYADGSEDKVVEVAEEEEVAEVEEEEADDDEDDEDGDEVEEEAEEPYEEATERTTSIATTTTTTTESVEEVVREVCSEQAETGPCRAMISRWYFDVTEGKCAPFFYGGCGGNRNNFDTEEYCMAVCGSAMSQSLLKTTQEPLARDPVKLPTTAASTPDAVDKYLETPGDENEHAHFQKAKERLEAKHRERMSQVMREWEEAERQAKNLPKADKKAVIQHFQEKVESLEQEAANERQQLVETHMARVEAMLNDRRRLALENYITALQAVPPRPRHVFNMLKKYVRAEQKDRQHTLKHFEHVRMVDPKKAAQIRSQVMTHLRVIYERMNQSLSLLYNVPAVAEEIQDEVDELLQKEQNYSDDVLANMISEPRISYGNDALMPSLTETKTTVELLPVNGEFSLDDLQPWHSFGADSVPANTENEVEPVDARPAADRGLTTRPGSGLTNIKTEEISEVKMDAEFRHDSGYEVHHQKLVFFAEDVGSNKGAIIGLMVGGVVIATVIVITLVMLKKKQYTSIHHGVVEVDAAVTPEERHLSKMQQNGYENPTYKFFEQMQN
# [8] = target: Amyloid-beta precursor protein (Homo sapiens) (UniProt P05067); assay: Inhibition of amyloid beta (1 to 42) (unknown origin) self-aggregation assessed as absence of fibrillar aggregates at 1:5 amyloid-beta:compound concentration ratio incubated for 72 hrs by scanning transmission electron microscopic analysis
# [9] = target: Amyloid-beta precursor protein (Homo sapiens) (UniProt P05067); assay: Inhibition of amyloid beta (1 to 42) (unknown origin) self-aggregation assessed as absence of fibrillar aggregates at 1:5 amyloid-beta:compound concentration ratio measured immediately by high-resolution transmission electron microscopic analysis
# [10] = target: Amyloid-beta precursor protein (Homo sapiens) (UniProt P05067); assay: Inhibition of amyloid beta (1 to 42) (unknown origin) self-aggregation assessed as absence of fibrillar aggregates at 1:5 amyloid-beta:compound concentration ratio measured immediately by scanning transmission electron microscopic analysis
# [11] = target: Amyloid-beta precursor protein (Homo sapiens) (UniProt P05067); assay: Inhibition of amyloid beta (1 to 42) (unknown origin) self aggregation by ThT fluorescence assay relative to control; conditions: concentration not given here
# [12] = target: Amyloid-beta precursor protein (Homo sapiens) (UniProt P05067); assay: Inhibition of amyloid beta (1 to 42) (unknown origin) self aggregation at 2 to 10 uM by ThT fluorescence assay; conditions: dose 2-10 µM
# [13] = target: Amyloid-beta precursor protein (Homo sapiens) (UniProt P05067); assay: Inhibition of amyloid beta (1 to 42) (unknown origin) self aggregation at 2 uM by ThT fluorescence assay relative to control
# [14] = target: Amyloid-beta precursor protein (Homo sapiens) (UniProt P05067); assay: Inhibition of amyloid beta (1 to 42) (unknown origin) self aggregation at 10 uM by ThT fluorescence assay relative to control
# [15] = target: Amyloid-beta precursor protein (Homo sapiens) (UniProt P05067); assay: Inhibition of amyloid beta (1 to 42) (unknown origin) self-aggregation measured for 7 days by ThT fluorescence assay; conditions: time 7.0 day
# [16] = target: Amyloid-beta precursor protein (Homo sapiens) (UniProt P05067); assay: Inhibition of amyloid beta (1 to 42 ) (unknown origin) self aggregation in liposome-mimicked rat neuronal membrane assessed as fluorescence quenching at 1:5 amyloid-beta:compound concentration ratio incubated for 72 hrs by ANS fluorescence spectra; type: cell membranes; conditions: Neuron
# [17] = target: Amyloid-beta precursor protein (Homo sapiens) (UniProt P05067); assay: Inhibition of amyloid beta (1 to 42) (unknown origin) self-aggregation assessed as alpha-helix content at 1:5 amyloid-beta:compound concentration ratio incubated for 48 hrs by CD spectroscopy (reference value: 0 %); set-up: scale not given: the % may be the effect or the level left
# [18] = target: Amyloid-beta precursor protein (Homo sapiens) (UniProt P05067); assay: Inhibition of amyloid beta (1 to 42) (unknown origin) self-aggregation assessed as beta-sheet content at 1:5 amyloid-beta:compound concentration ratio incubated for 48 hrs by CD spectroscopy (reference value: 55.2 %); set-up: scale not given: the % may be the effect or the level left
# [19] = target: Amyloid-beta precursor protein (Homo sapiens) (UniProt P05067); assay: Inhibition of amyloid beta (1 to 42) (unknown origin) self-aggregation assessed as beta-turn content at 1:5 amyloid-beta:compound concentration ratio incubated for 48 hrs by CD spectroscopy (reference value: 44.8 %); set-up: scale not given: the % may be the effect or the level left
# [20] = target: Amyloid-beta precursor protein (Homo sapiens) (UniProt P05067); assay: Inhibition of amyloid beta (1 to 42) (unknown origin) self-aggregation assessed as random coil content at 1:5 amyloid-beta:compound concentration ratio incubated for 48 hrs by CD spectroscopy (reference value: 0 %); set-up: scale not given: the % may be the effect or the level left
# [21] = target: Amyloid-beta precursor protein (Homo sapiens) (UniProt P05067); assay: Inhibition of amyloid beta (1 to 40) (unknown origin) self-aggregation assessed as alpha-helix content at 1:5 amyloid-beta:compound concentration ratio incubated for 48 hrs by CD spectroscopy (reference value: 0 %); set-up: scale not given: the % may be the effect or the level left
# [22] = target: Amyloid-beta precursor protein (Homo sapiens) (UniProt P05067); assay: Inhibition of amyloid beta (1 to 40) (unknown origin) self-aggregation assessed as beta-sheet content at 1:5 amyloid-beta:compound concentration ratio incubated for 48 hrs by CD spectroscopy (reference value: 59.7 %); set-up: scale not given: the % may be the effect or the level left
# [23] = target: Amyloid-beta precursor protein (Homo sapiens) (UniProt P05067); assay: Inhibition of amyloid beta (1 to 40) (unknown origin) self-aggregation assessed as beta-turn content at 1:5 amyloid-beta:compound concentration ratio incubated for 48 hrs by CD spectroscopy (reference value: 0 %); set-up: scale not given: the % may be the effect or the level left
# [24] = target: Amyloid-beta precursor protein (Homo sapiens) (UniProt P05067); assay: Inhibition of amyloid beta (1 to 40) (unknown origin) self-aggregation assessed as random coil content at 1:5 amyloid-beta:compound concentration ratio incubated for 48 hrs by CD spectroscopy (reference value: 40.3 %); set-up: scale not given: the % may be the effect or the level left
# [25] = target: Amyloid-beta precursor protein (Homo sapiens) (UniProt P05067); assay: Inhibition of amyloid beta (1 to 40)/amyloid beta (1 to 42) (unknown origin) self-aggregation assessed as alpha-helix content at 1:5 amyloid-beta:compound concentration ratio incubated for 48 hrs by CD spectroscopy (reference value: 0 %); set-up: scale not given: the % may be the effect or the level left
# [26] = target: Amyloid-beta precursor protein (Homo sapiens) (UniProt P05067); assay: Inhibition of amyloid beta (1 to 40)/amyloid beta (1 to 42) (unknown origin) self-aggregation assessed as beta-sheet content at 1:5 amyloid-beta:compound concentration ratio incubated for 48 hrs by CD spectroscopy (reference value: 70.8 %); set-up: scale not given: the % may be the effect or the level left
# [27] = target: Amyloid-beta precursor protein (Homo sapiens) (UniProt P05067); assay: Inhibition of amyloid beta (1 to 40)/amyloid beta (1 to 42) (unknown origin) self-aggregation assessed as beta-turn content at 1:5 amyloid-beta:compound concentration ratio incubated for 48 hrs by CD spectroscopy (reference value: 29.2 %); set-up: scale not given: the % may be the effect or the level left
# [28] = target: Amyloid-beta precursor protein (Homo sapiens) (UniProt P05067); assay: Inhibition of amyloid beta (1 to 40)/amyloid beta (1 to 42) (unknown origin) self-aggregation assessed as random coil content at 1:5 amyloid-beta:compound concentration ratio incubated for 48 hrs by CD spectroscopy (reference value: 0 %); set-up: scale not given: the % may be the effect or the level left
# [29] = target: Amyloid-beta precursor protein (Homo sapiens) (UniProt P05067); assay: Inhibition of amyloid beta (1 to 42 ) (unknown origin) self-aggregation assessed as decrease in appearance of peak at m/z 685.4383 at 1:5 amyloid-beta:compound concentration ratio incubated for 72 hrs by HRMS-ESI analysis
# [30] = target: Amyloid-beta precursor protein (Homo sapiens) (UniProt P05067); assay: Inhibition of amyloid beta (1 to 42 ) (unknown origin) self-aggregation assessed as appearance of peak at m/z 1224.4239 at 1:5 amyloid-beta:compound concentration ratio incubated for 72 hrs by HRMS-ESI analysis
# [31] = target: Amyloid-beta precursor protein (Homo sapiens) (UniProt P05067); assay: Inhibition of amyloid beta (1 to 42 ) (unknown origin) self-aggregation assessed as appearance of peak at m/z 722.4940 at 1:5 amyloid-beta:compound concentration ratio incubated for 72 hrs by HRMS-ESI analysis
# [32] = target: Amyloid-beta precursor protein (Homo sapiens) (UniProt P05067); assay: Inhibition of amyloid beta (1 to 42 ) (unknown origin) self-aggregation assessed as appearance of peak at m/z 507.3270 at 1:5 amyloid-beta:compound concentration ratio incubated for 72 hrs by HRMS-ESI analysis
# [33] = target: Amyloid-beta precursor protein (Homo sapiens) (UniProt P05067); assay: Inhibition of amyloid beta (1 to 42) (unknown origin) self-aggregation assessed as reduction in polydispersity index measured after 7 days by dynamic light scattering analysis; conditions: time 7.0 day
# [34] = target: Amyloid-beta precursor protein (Homo sapiens) (UniProt P05067); assay: Inhibition of amyloid beta (1 to 42) (unknown origin) self-aggregation assessed as Z-average value measured after 7 days by dynamic light scattering analysis; conditions: time 7.0 day
# [35] = Cytotoxicity against rat PC-12 cells assessed as cell viability at 20 uM by MTT assay relative to control; type: toxicity, cell-based; conditions: read-out: Activity
# [36] = Cytotoxicity against rat PC-12 cells assessed as cell viability at 50 uM by MTT assay relative to control; type: toxicity, cell-based; conditions: read-out: Activity
# SH-SY5Y = assay: Inhibition of amyloid beta (1 to 42)-induced toxicity in human SH-SY5Y cells assessed as cell survival at 50 uM incubated for 24 hrs by MTT assay relative to control; type: functional; conditions: read-out: Survival
compound,measurement,setting,value
CC[C@H](C)[C@H](NC(=O)[C@@H](NC(=O)C1CC2CCCCC2N1)C(C)C)C(=O)N[C@@H](C)C(N)=O (stereo partly specified),viability at 2 µM,PC-12 [1],65.3%
same,viability at 4 µM,PC-12 [2],63.3%
same,viability at 10 µM,PC-12 [3],57.7%
same,inhibition at 2 µM,[4],5%
same,inhibition at 4 µM,[5],0%
same,inhibition at 10 µM,[6],0%
same,inhibition,[7],"Not active; Formation Of Small, Non-Fibrillar Like Amorphous Aggregates Observed"
same,inhibition,[8],"Not active; Formation Of Small, Non-Fibrillar Like Amorphous Aggregates Observed"
same,inhibition,[9],Not active; Small Aggregates Observed
same,inhibition,[10],Not active; Small Aggregates Observed
CC[C@H](C)[C@H](NC(=O)C1Cc2ccccc2CN1C(=O)[C@@H](N)C(C)C)C(=O)N[C@@H](C)C(N)=O (stereo partly specified),viability at 2 µM,PC-12 [1],95.4%
same,viability at 4 µM,PC-12 [2],80.3%
same,viability at 10 µM,PC-12 [3],76.1%
same,inhibition at 2 µM,[4],87%
same,inhibition at 4 µM,[5],46%
same,inhibition at 10 µM,[6],34%
same,inhibition,[11],> 50%
same,inhibition,[12],Active
CC[C@H](C)[C@H](NC(=O)[C@H](C)N)C(=O)NC(C)(C)C(=O)N[C@H](C(N)=O)C(C)C (H-AI[Aib]V-NH2),viability at 2 µM,PC-12 [1],66.1%
same,viability at 4 µM,PC-12 [2],82.8%
same,viability at 10 µM,PC-12 [3],90.2%
same,inhibition at 2 µM,[4],7%
same,inhibition at 4 µM,[5],53%
same,inhibition at 10 µM,[6],73%
same,inhibition,[13],62.7%
same,inhibition,[14],80.8%
same,inhibition,[12],Active
same,inhibition,[15],Active
same,inhibition,[16],Active; Blue Shift Of 2 To 3 Nm And Isoemissive Point At ~427 Nm Observed
same,Activity,[17],14.4%
same,Activity,[18],0%
same,Activity,[19],49%
same,Activity,[20],36.6%
same,Activity,[21],21.6%
same,Activity,[22],0%
same,Activity,[23],40.3%
same,Activity,[24],38.1%
same,Activity,[25],23.9%
same,Activity,[26],1.9%
same,Activity,[27],48.4%
same,Activity,[28],25.7%
same,inhibition,[29],Active; Peak Corresponds To Aggregates
same,inhibition,[30],Active; Peaks Corresponds To [(Amyloidbeta (21 To 42) + M)4+ ]
same,inhibition,[31],Active; Peaks Corresponds To [Amyloidbeta (1 To 42) + M + Na]7+
same,inhibition,[32],Active; Peaks Corresponds To [Amyloidbeta (1 To 42) + M]4+
same,inhibition,[7],Active
same,inhibition,[8],Active
same,inhibition,[9],Active
same,inhibition,[10],Active
same,inhibition,[33],Active
same,inhibition,[34],Active
same,viability at 20 µM,[35],98.5%
same,viability at 50 µM,[36],97.9%
CC[C@H](C)[C@H](NC(=O)[C@@H](NC(=O)[C@@H](N)C(C)C)C(C)C)C(=O)N[C@@H](Cc1ccccc1)C(N)=O (H-VVIF-NH2),viability at 2 µM,PC-12 [1],85.6%
same,viability at 4 µM,PC-12 [2],83.6%
same,viability at 10 µM,PC-12 [3],66.9%
same,inhibition at 2 µM,[4],60%
same,inhibition at 4 µM,[5],55%
same,inhibition at 10 µM,[6],9%
same,inhibition,[11],> 50%
H-RIIGL-NH2,viability at 50 µM,SH-SY5Y,84%
